Source: BindingDB's records for doi:10.1021/jm00120a002 (Merck Sharp & Dohme Research Laboratories, 1989)

experiment: Half-maximal inhibition of [125I]gastrin binding to guinea pig gastric glands

Point of comparison: `CCOC(=O)CN1C(=O)C(NC(=O)c2ccccc2Cl)N=C(c2ccccc2F)c2ccccc21` (configuration not stated) [[3-(2-Chloro-benzoylamino)-5-(2-fluoro-phenyl)-2-oxo-2,3-dihydro-benzo[e][1,4]diazepin-1-yl]-acetic acid ethyl ester], IC50 1.3 µM. Against it:
- O=C(NC1N=C(c2ccccc2F)c2ccccc2NC1=O)c1cc2cc(Cl)ccc2[nH]1 (configuration not stated) [5-Chloro-1H-indole-2-carboxylic acid [5-(2-fluoro-phenyl)-2-oxo-2,3-dihydro-1H-benzo[e][1,4]diazepin-3-yl]-amide] — 15-fold higher, 20 µM
- O=C(NC1N=C(c2ccccc2F)c2ccccc2NC1=O)c1cc2cc(F)ccc2[nH]1 (configuration not stated) [5-Fluoro-1H-indole-2-carboxylic acid [5-(2-fluoro-phenyl)-2-oxo-2,3-dihydro-1H-benzo[e][1,4]diazepin-3-yl]-amide: 0.23CHCL3] — higher, > 10 µM
- O=C(NC1N=C(c2ccccc2F)c2ccccc2NC1=O)c1cc2cc(O)ccc2[nH]1 (configuration not stated) [5-Hydroxy-1H-indole-2-carboxylic acid [5-(2-fluoro-phenyl)-2-oxo-2,3-dihydro-1H-benzo[e][1,4]diazepin-3-yl]-amide] — 22-fold higher, 29 µM
- CN1C(=O)[C@H](NC(=O)[C@H](N)Cc2ccccc2)N=C(c2ccccc2)c2ccccc21 [(R)-2-amino-N-((R)-1-methyl-2-oxo-5-phenyl-2,3-dihydro-1H-benzo[e][1,4]diazepin-3-yl)-3-phenylpropanamide] — 42-fold higher, 55 µM
- O=C(O)CN1C(=O)C(NC(=O)c2cc3ccccc3[nH]2)N=C(c2ccccc2)c2ccccc21 (configuration not stated) [CCK antagonist synthetic 20] — 2-fold lower, 0.65 µM

experiment: Half-maximal inhibition of [125I]CCK-33 binding to cholecystokinin receptor

For `O=C1Nc2ccc(Cl)cc2C(c2ccccc2)=N[C@@H]1Cc1c[nH]c2ccccc12`, the IC50 was 3.4 µM.
